Measurements as given in US10656159B2, “Immunoassays of s-adenosylmethionine and methylation index in personalized medicine and health evaluation” (HUNAN SKYWORLD BIOTECHNOLOGIES CO, priority 2013, dated 2020).
Where “and” joins values, the source holds several entries; their conditions need not be identical. Identical values can stand only once. Entries after “also recorded” stand apart in the source; their conditions may differ.

Key:
[1] = Dialysis of plasma: free and non-free SAM and SAH; format: in vitro ADME, human; conditions: for Amount left after dialysis: 37° C., 24 hour; for Non-free form left within the dialysis bag: dialysis 15° C., 24 hours, 20 mM phosphate buffer pH 7.4, bag MW 14,000
Experimental: To distinguish whether there are conjugated form of SAM and SAH in human plasma, we used dialysis bags to dialyze plasma samples at different temperature for 24 hours with at least two changes of dialyzing buffer (20 mM PB, pH7.4), then measured the SAM and SAH levels before and after dialysis.
Notice that for those SAH data which were greater than or equal to 1000 nM, only 1000 nM was used in the figure. Therefore, it is obvious that the immunoassays used in this invention can bind free SAM and SAH from human plasma. The differences of SAM or SAH as measured before and after dialysis (20 mM phosphate buffer, pH 7.4) for each sample represented the free SAM or SAH molecules that escaped from the dialysis bag (MW 14,000, Biosharp, USA) into the dialysis buffer, therefore they could not be detected from the sample collected from dialysis bag.
FIGS. 20A and 20B also show the percentages of SAM and SAH that were left within the dialysis bag after dialysis at 15° C. for 24 hours, which represented the amount of non-free SAM and SAH respectively.

[2] = Stability of SAM and SAH in plasma at different pH; format: in vitro ADME, human; conditions: for Effect of pH on degradation: plasma, 15° C., pH 5.5-6.0, 7.0-7.5, 8.0-8.5; for Level at 1 day time point: maximum detection limit 1000 nM
Experimental: The stability of SAM and SAH was also tested in acidic and basic conditions at 15° C. Normal mixed plasma sample (S8) (with pH 7.84), samples S1, S2, S3, S4 (pH 7.0-7.5) were used in the experiments. 10 μl 5M HCl was added to 1260 μl plasma to adjust its pH to 5.5-6.0. In another set of samples, 2 μl 5M NaOH was added to 1260 μl plasma to adjust its pH to 8.0-8.5. Before using these acidic or basic samples to conduct the immunoassay, 1.1 μl 5M NaOH was added to 180 μl acidic samples; 0.376 μl 5M HCl was added to 180 μl basic samples to make them neutral. Meanwhile, standards were also added the same amount of acid and base as the samples.
This observation was consistent with a prior publication regarding pH stability of SAM (Parks, L W, et al. jbc.org Aug. 23, 1957). […] However basic environment has a stronger impact than acidic environment. The SAH data at 1 day time point, the SAH levels for pH 7.0-7.5 and pH 5.5-6.0 curves were measured to be greater than 1000 nM. The experiment has maximum detection limit as 1000 nM, only 1000 nM points were plotted, therefore the spikes at 1 day time point could not been see for pH 7.0-7.5 and pH 5.5-6.0 curves. This figure is meant to show the dynamics of SAH level for this particular sample. Difference among samples exists.

[3] = Thermal stability of SAM and SAH in human plasma; format: in vitro ADME
Experimental: The stability of SAM and SAH at different temperatures, as well as their stability in acid and base environment were tested. The 310 human plasma samples were placed at room temperature for 2 hours. […] The increased SAH was due to de-methylation of SAM in ex vivi situation within a few hours of blood withdrawal.
Results from stability study for different temperature conditions, i.e. 4° C., 15° C. (room temperature), 37° C. and 56° C., were obtained mainly on SAM and partially on SAH measurements. Plasma from 4 individual samples S3, S4, S5 and S6 were used in 4° C., 15° C. and 37° C. experiments.
However, when samples were placed at room temperature (˜15° C.) and 37° C., SAM was degraded rapidly especially at 37° C., SAM degradation rate reached a maximum at about 4-6 hours under 37° C. […] At about 6 hours after blood withdrawal, SAM level was reduced whereas SAH level was increased. The values of SAH were recorded as >1000 nM from 6 hours to 3 days, thus SAH leaks were not shown. The level of SAH was maintained at a high level for about 3 days before it started to drop. SAM level went down continuously. […] It cannot be ruled out that inhibition of SAH converting to other metabolites or degradation also existed causing it to stay high for quite some time. It meant to show the dynamics of SAM and SAH for this particular sample. Difference among samples exists. Samples S1, S2, S3 and S4 were used in 56° C. experiments. The results are shown in FIG. 19F-G. SAM was quickly undetectable in 10 minutes at 56° C., whereas SAH was dramatically degraded in 10 minutes and fully undetectable after about 4 hours at 56° C.

[4] = oral, alcoholic liver cirrhosis, versus placebo; cited from earlier work
[5] = tested on: nucleolar 2-O-methyltransferase; conditions: cited from earlier work
[6] = cELISA sensitivity / SAH standard curve; format: binding; conditions: HRP-anti-301-1 1:1000, 0.5 μg/ml BSA-SAH coat
Experimental: The cELISA result from Table 1C with obtained from 0.5 μg/ml BSA-SAH coated micro-titer plate, HRP-anti-301-1 at dilution of 1:1000 in PBS incubation system. Different amounts of coating antigen, antibody, and incubating buffer will give slightly different minimum detection limits.

[7] = 310 human plasma samples, room temperature 2 hours versus 4° C.

C[S+](CC[C@H](N)C(=O)O)C[C@H]1O[C@@H](n2cnc3c(N)ncnc32)[C@H](O)[C@@H]1O (some centres unmarked) [SAM, S-Adenosylmethionine]
Amount left after dialysis [1]: trivial or no SAM and SAH left | Non-free form left within the dialysis bag [1]: 11-25% | Effect of pH on degradation [2]: degradation rate increased with pH values; also recorded: Low pH (acidic environment) helped prevent SAM from quick degradation | Reduction of level [3, 7]: 33.81%±19.43% | Stability ([3]; plasma, 37° C.): reduced quickly in all samples | Time at which degradation rate reached a maximum ([3]; plasma, 37° C.): 4 to 6 h | Stability ([3]; plasma, 56° C.): reduced even faster than at 37 °C | Time to undetectable ([3]; plasma, 56° C.): 10 min | Overall mortality and/or progression to liver transplant [4]: 12%

C[S+](CC[C@H](N)C(=O)[O-])C[C@H]1O[C@@H](n2cnc3c(N)ncnc32)[C@H](O)[C@@H]1O (stereo partly drawn) [(S, S)-SAM-e]
Binding tightness relative to (R, S)-SAM-e [5]: 10 fold

Nc1ncnc2c1ncn2[C@@H]1O[C@H](CSCC[C@H](N)C(=O)O)[C@@H](O)[C@H]1O [SAH, S-Adenosylhomocysteine]
OD450 ([6]; SAH 3.906 nM): 0.7722 and 0.9144 and 0.7786 | OD450 Mean ([6]; SAH 3.906 nM): 0.8217 | OD450 ([6]; SAH 7.8125 nM): 0.7602 and 0.8113 and 0.7708 | OD450 Mean ([6]; SAH 7.8125 nM): 0.7808 | OD450 ([6]; SAH 15.625 nM): 0.8045 and 0.8273 and 0.7975 | OD450 Mean ([6]; SAH 15.625 nM): 0.8098 | OD450 ([6]; SAH 31.25 nM): 0.7285 and 0.8199 and 0.7545 | OD450 Mean ([6]; SAH 31.25 nM): 0.7676 | OD450 ([6]; SAH 62.5 nM): 0.6055 and 0.7115 and 0.6444 | OD450 Mean ([6]; SAH 62.5 nM): 0.6538 | OD450 ([6]; SAH 125 nM): 0.5421 and 0.6358 and 0.5372 | OD450 Mean ([6]; SAH 125 nM): 0.5717 | OD450 ([6]; SAH 250 nM): 0.4116 and 0.4426 and 0.442 | OD450 Mean ([6]; SAH 250 nM): 0.4321 | Amount left after dialysis [1]: trivial or no SAM and SAH left | Non-free form left within the dialysis bag [1]: around 30% | Level at 1 day time point ([2]; plasma pH 5.5-6.0, 15° C.): greater than 1000 nM | Level at 1 day time point ([2]; plasma pH 7.0-7.5, 15° C.): greater than 1000 nM | Effect of pH on degradation [2]: both acidic and basic environment speeded up plasma SAH degradation; also recorded: Both acid and base increased the speed SAH was degraded | Increase of level [3, 7]: 21.05%±83.31% | Time level was maintained at a high level before it started to drop ([3]; plasma, 15° C.): about 3 days | Time to fully undetectable ([3]; plasma, 56° C.): about 4 hours
